The values below come from the METLIN SMRT retention time set (Domingo-Almenara et al. 2019).

The series is described as follows: gradient 5% acetonitrile 3 min, to 50% in 2 min, to 85% in 15 min, held 3 min, 100 µL/min. To be noted: column: Zorbax Extend-C18 2.1 x 50 mm; eluents: water / acetonitrile, 0.1% formic acid. An outline of the steps:
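Using water and acetonitrile that each contained 0.1% formic acid, mixtures of ~100 pure standards were separated at 100 μL/min on a Zorbax Extend-C18 column (2.1 × 50 mm, 1.8 μm). The HPLC fed a quadrupole time-of-flight mass spectrometer working in positive and negative ionization mode, with dead and dwell volumes of 40 μL and 900 μL. Data were acquired over 3 months. Retention time was read from computationally picked adduct peaks after manual inspection of each.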
In the case of `CCCS(=O)(=O)c1nc2ccc(NS(=O)(=O)c3c(C)cc(C)cc3C)cc2s1`, the RP-LC retention time turned out to be 1030 s.
For `CC1=C(C(=O)NCCN2CCOCC2)C2(CCN(Cc3ccccc3)CC2)OC1=O` the value was 634 s.
For `Cc1csc(-c2cc(S(=O)(=O)NC(C)(C)C)c(C)n2C)n1` the value was 914 s; for `Cc1noc(C2CN(C(=O)Nc3ccc(Cl)cc3F)CC23CCOCC3)n1` (centres undefined), 769 s.
With `Cc1noc(C)c1CCC(=O)Nc1nnc(-c2ccsc2)o1` the figure was 628 s; with `CCCn1cc(CCNS(=O)(=O)c2ccc3c(c2)CCC3)c2cccnc21`, 938 s; with `COc1ccccc1/C=C(\C#N)C(=O)O`, 801 s.
The compound `CCNC(=O)N1CCCN(S(C)(=O)=O)CC1` showed an RP-LC retention time of 566 s.
Regarding `Cc1[nH]c(=O)[nH]c(=O)c1CC(=O)NCCn1nc(-c2ccco2)ccc1=O`, the RP-LC retention time amounted to 552 s.
With `COc1ccc(C)cc1NC(=O)CN1C(=O)NC2(CCC(C)CC2)C1=O` (centres undefined) the figure was 853 s; with `CN1CCc2nnc(C3CCCN3C(=O)Nc3ccc(Cl)cc3C(F)(F)F)n2CC1` (centres undefined), 594 s; with `O=C(Nc1ccc2c(c1)OCCO2)N1CCCC(Cn2cnc3cccnc32)C1` (centres undefined), 637 s.
`O=C(O)CSc1ccc(NC(=O)Nc2ccccc2F)cc1` returned an RP-LC retention time of 842 s.
With `Cc1ccc(-c2noc(CN3N=NC4C(=O)N(c5cccc(F)c5)C(=O)C43)n2)cc1` (centres undefined) the figure was 1020 s; with `COc1ccccc1NC(=O)N1CCCC1c1nc(-c2cccc(C)c2)no1` (centres undefined), 1080 s; with `Cc1ccc(NC(=O)Cn2c(=O)cc(-c3nc(C(C)C)no3)c3ccccc32)c(Cl)c1`, 1110 s.
With `Cc1ccc(-c2coc(-c3ccc(NC(=O)C(C)(C)C)cc3)n2)cc1` the figure was 1220 s; with `CCC(=O)N(C)CCc1noc(-c2ccc(C(=O)NCCOC)cc2)n1`, 644 s; with `CC(C)N1C(=O)Cc2ccccc2C1C(=O)NCc1cccs1` (centres undefined), 750 s.
For `CC(=O)Nc1cccc(N2CC(C(=O)NCc3cccc(Br)c3)CC2=O)c1` (centres undefined) the value was 703 s; for `O=C(NCc1ccc2c(c1)OCO2)c1ccc2c(c1)N(CC(=O)N1CCCC1)C(=O)CO2`, 674 s.
`O=C1NCCCn2cc(S(=O)(=O)NC3CCCCCC3)cc21` yielded an RP-LC retention time of 688 s.
With `CCOC(=O)c1cccc(NC(=O)Cn2c(=O)c(CCC(=O)NC3CCCC3)nc3ccccc32)c1` the figure was 876 s.
For the compound `Cn1cccc1C(=O)C(=O)NCc1cccc(Br)c1`, the RP-LC retention time turned out to be 918 s.
With `CS(=O)(=O)N1CCC(C(=O)Nc2ccc(C(F)(F)F)cc2)Oc2ccc(Cl)cc21` (centres undefined) the figure was 1060 s; with `Cc1cnc(NC(=O)C2CN(c3nc4ccccc4s3)C2)s1`, 700 s; with `O=C(CN1C(=O)CC(c2ccccc2)S(=O)(=O)c2ccccc21)N1CCOCC1` (centres undefined), 704 s.
For `O=C(Cn1c(=O)n(-c2ccccc2)c2ncccc21)NCCN1CCCCC1` the value was 585 s.
With `CCOc1ccc(S(=O)(=O)N2CCCC(C(=O)NCCOC)C2)cc1C` (centres undefined) the figure was 769 s; with `Cc1nc2cc(N3CC(C(=O)Nc4cccc(C)c4C)CC3=O)ccc2o1` (centres undefined), 785 s.
For the compound `Cc1ccc(C(=O)N2CCCn3cc(-c4ccccc4F)nc32)cn1`, the RP-LC retention time was determined as 627 s.
For `CCc1ccc2occ(CC(=O)N(Cc3ccc(N(C)C)cc3)C3CCS(=O)(=O)C3)c2c1` (centres undefined) the value was 868 s.
With `CC1(C(=O)N2CCN(c3ccccn3)CC2)CCCCC(=O)N1` (centres undefined), the RP-LC retention time stood at 552 s.
For `COc1ccc(-c2cc(C(=O)N3CCN(c4ccc(N5CCOCC5)nn4)CC3)[nH]n2)cc1` the value was 625 s.
